# Measured values from US9505726B2, “Substituted biphenyl amides as P2X3 and P2X2/3 antagonists” (Roche Palo Alto LLC, priority 2009, dated 2016).
# Target: T1, rat P2X3 receptor (Rattus norvegicus, UniProt P49654)
# T1 construct: expressed in transfected cells; host or cells: CHO-K1
# T1 sequence (P49654 1-397): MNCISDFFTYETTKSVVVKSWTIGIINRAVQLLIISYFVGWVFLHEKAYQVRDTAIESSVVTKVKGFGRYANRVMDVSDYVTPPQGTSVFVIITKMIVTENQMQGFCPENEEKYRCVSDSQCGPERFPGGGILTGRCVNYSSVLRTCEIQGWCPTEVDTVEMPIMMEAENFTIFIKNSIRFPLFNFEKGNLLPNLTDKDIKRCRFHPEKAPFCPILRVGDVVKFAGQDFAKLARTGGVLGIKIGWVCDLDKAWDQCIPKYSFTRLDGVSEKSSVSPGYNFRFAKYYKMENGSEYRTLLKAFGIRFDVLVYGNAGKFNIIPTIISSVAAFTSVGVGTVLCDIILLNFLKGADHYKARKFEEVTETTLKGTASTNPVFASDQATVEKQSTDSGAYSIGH
# Assay: P2X3 FLIPR (Fluorometric Imaging Plate Reader) assay
# Format: cell-based
# Settings: CHO-K1 cells transfected with cloned rat P2X3; agonist α,β-meATP 1 μM; Fluo-3 AM calcium fluorescence
# Method: CHO-K1 cells were transfected with cloned rat P2X3 or human P2X2/3 receptor subunits and passaged in flasks. 18-24 hours before the FLIPR experiment, cells were released from their flasks, centrifuged, and resuspended in nutrient medium at 2.5×10^5 cells/ml. The cells were aliquoted into black-walled 96-well plates at a density of 50,000 cells/well and incubated overnight in 5% CO2 at 37° C. On the day of the experiment, cells were washed in FLIPR buffer (calcium- and magnesium-free Hank's balanced salt solution, 10 mM HEPES, 2 mM CaCl2, 2.5 mM probenecid; FB). Each well received 100 μl FB and 100 μl of the fluorescent dye Fluo-3 AM [2 μM final conc.]. After a 1 hour dye loading incubation at 37° C., the cells were washed 4 times with FB, and a final 75 μl/well FB was left in each well.
# Test compounds (dissolved in DMSO at 10 mM and serially diluted with FB) or vehicle were added to each well (25 μl of a 4× solution) and allowed to equilibrate for 20 minutes at room temperature. The plates were then placed in the FLIPR and a baseline fluorescence measurement (excitation at 488 nm and emission at 510-570 nm) was obtained for 10 seconds before a 100 μl/well agonist or vehicle addition. The agonist was a 2X solution of α,β-meATP producing a final concentration of 1 μM (P2X3) or 5 μM (P2X2/3). Fluorescence was measured for an additional 2 minutes at 1 second intervals after agonist addition. A final addition of ionomycin (5 μM, final concentration) was made to each well of the FLIPR test plate to establish cell viability and maximum fluorescence of dye-bound cytosolic calcium. Peak fluorescence in response to the addition of α,β-meATP (in the absence and presence of test compounds) was measured and inhibition curves generated using nonlinear regression. PPADS, a standard P2X antagonist, was used as a positive control.
row,Structure (SMILES),P2X3 (pIC50 values for the P2X3 receptor)
1,"Cc1ccc(-c2cc(C(=O)N[C@@H](C)CO)cc(N(C)C(=O)C(C)C)c2)c(Cl)c1 [Compound 55, 2′-Chloro-5-(isobutyryl-methyl-amino)-4′-methyl-biphenyl-3-carboxylic acid ((S)-2-hydroxy-1-methyl-ethyl)-amide]",5.53
2,"Cc1ccc(-c2cc(C(=O)NCc3cnccn3)cc(N(C)C(=O)C(C)C)c2)c(Cl)c1 [Compound 56, 2′-Chloro-5-(isobutyryl-methyl-amino)-4′-methyl-biphenyl-3-carboxylic acid (pyrazin-2-ylmethyl)-amide]",5.6
3,"CC(NC(=O)c1cc(-c2ccc(Cl)cc2)cc(N(C)C(=O)N(C)C)c1)c1cnccn1 (stereo not shown) [Compound 57, 4′-Chloro-5-(trimethyl-ureido)-biphenyl-3-carboxylic acid (1-pyrazin-2-yl-ethyl)-amide]",6.26
4,"Cc1ccc(-c2cc(C(=O)NC(C)c3cnccn3)cc(N(C)C(=O)C(C)C)c2)c(F)c1 (stereo not shown) [Compound 58, 2′-Fluoro-5-(isobutyryl-methyl-amino)-4′-methyl-biphenyl-3-carboxylic acid (1-pyrazin-2-yl-ethyl)-amide]",8.25
5,"Cc1ccc(-c2cc(C(=O)N[C@@H](C)CO)cc(N(C)C(=O)C(C)C)c2)c(F)c1 [Compound 59, 2′-Fluoro-5-(isobutyryl-methyl-amino)-4′-methyl-biphenyl-3-carboxylic acid ((S)-2-hydroxy-1-methyl-ethyl)-amide]",8.16
6,"Cc1ccc(-c2cc(C(=O)NCc3cnccn3)cc(N(C)C(=O)C(C)C)c2)c(F)c1 [Compound 60, 2′-Fluoro-5-(isobutyryl-methyl-amino)-4′-methyl-biphenyl-3-carboxylic acid (pyrazin-2-ylmethyl)-amide]",7.8
7,"CC(=O)N1CCC(C(=O)N(C)c2cc(C(=O)NC(C)c3cnccn3)cc(-c3ccc(C)cc3)c2)CC1 (stereo not shown) [Compound 61, 1-Acetyl-piperidine-4-carboxylic acid methyl-[4′-mcthyl-5-(1-pyrazin-2-yl-ethylcarbamoyl)-biphenyl-3-yl]-amide]",5.7
8,"Cc1ccc(-c2cc(C(=O)NCc3cnccn3)cc(N(C)C(=O)C(C)C)c2)cc1 [Compound 62, 5-(Isobutyryl-methyl-amino)-4′-methyl-biphenyl-3-carboxylic acid (pyrazin-2-ylmethyl)-amide]",8.14
9,"COC[C@@H](C)NC(=O)c1cc(-c2ccc(Cl)cc2Cl)cc(N(C)C(=O)C(C)C)c1 [Compound 63, 2′,4′-Dichloro-5-(isobutyryl-methyl-amino)-biphenyl-3-carboxylic acid ((R)-2-methoxy-1-methyl-ethyl)-amide]",5.94
10,"CC(C)C(=O)N(C)c1cc(C(=O)NC(C)c2cnccn2)cc(-c2ccc(Cl)cc2Cl)c1 (stereo not shown) [Compound 64, 2′,4′-Dichloro-5-(isobutyryl-methyl-amino)-biphenyl-3-carboxylic acid (1-pyrazin-2-yl-ethyl)-amide]",7.5
11,"COC[C@@H](C)NC(=O)c1cc(-c2ccc(F)cc2F)cc(N(C)C(=O)C(C)C)c1 [Compound 65, 2′,4′-Difluoro-5-(isobutyryl-methyl-amino)-biphenyl-3-carboxylic acid ((R)-2-methoxy-1-methyl-ethyl)-amide]",5.38
12,"CC(C)C(=O)N(C)c1cc(C(=O)NC(C)c2cnccn2)cc(-c2ccc(F)cc2F)c1 (stereo not shown) [Compound 66, 2′,4′-Difluoro-5-(isobutyryl-methyl-amino)-biphenyl-3-carboxylic acid (1-pyrazin-2-yl-ethyl)-amide]",6.63
13,"CC(C)C(=O)N(C)c1cc(C(=O)NC(C)c2cnccn2)cc(-c2ccc(Cl)cn2)c1 (stereo not shown) [Compound 67, 3-(5-Chloro-pyridin-2-yl)-5-(isobutyryl-methyl-amino)-N-(1-pyrazin-2-yl-ethyl)-benzamide]",7.75
14,"CC(C)C(=O)N(C)c1cc(C(=O)N[C@@H](C)CO)cc(-c2ccc(Cl)cn2)c1 [Compound 69, 3-(5-Chloro-pyridin-2-yl)-N-((S)-2-hydroxy-1-methyl-ethyl)-5-(isobutyryl-methyl-amino)-benzamide]",6.86
15,"Cc1ccc(-c2cc(C(=O)NC(C)c3cnccn3)cc(N(C)C(=O)C(C)C)c2)nc1 (stereo not shown) [Compound 70, 3-(Isobutyryl-methyl-amino)-5-(5-methyl-pyridin-2-yl)-N-(1-pyrazin-2-yl-ethyl)-benzamide]",8.11
16,"Cc1ccc(-c2cc(C(=O)N[C@@H](C)CO)cc(N(C)C(=O)C(C)C)c2)nc1 [Compound 72, N-((S)-2-Hydroxy-1-methyl-ethyl)-3-(isobutyryl-methyl-amino)-5-(5-methyl-pyridin-2-yl)-benzamide]",7.58
